Results: patent US7691601B2, “Medium for detecting and/or identifying of microorganisms” (priority 2003, dated 2010)

Legend:
Candida krusei = experiment: Coloration of Candida krusei colonies on detection medium; assay type: cell-based; parameters: key: 0=absence of coloration; 0.5=trace coloration; 1=weak coloration; 2=strong coloration
Experimental: (§1) Preparation of the detection medium: A volume of 250 ml of detection medium is prepared from a powdered medium having the following composition:
(§2) Melting is carried out at 100° C., and the medium is autoclaved at 121° C. for 15 minutes. The additives are then added to the medium: Magenta C8 (500 mg/l; B-7102, BIOSYNTH, Staad, Switzerland); X-glucoside (75 mg/l; B-7250, BIOSYNTH, Staad, Switzerland); cefsulodine (10 mg/l; C 4786, Sigma, St Quentin Fallavier, France), and also the esterase inhibitor: • ? O,O-diethyl p-nitrophenyl phosphate: 5 mg/l • ? O,O-dimethyl p-nitrophenyl phosphate: 25 mg/l or • ? O,O-di-(2-chloroethyl)-O-(3-chloro-4-methylcoumarin-7-yl)phosphate: 75 mg/l
(§3) The various selection media thus obtained are then poured into Petri dishes.
(§4) Seeding of yeast of the Candida genus: 10 μl of stools are deposited onto a Petri dish, and this stool suspension is mixed or not mixed with 10 μl of a suspension of Candida and isolated as 3 dials on a Petri dish. Various stools and various strains of Candida genus originating from the applicant's collection are used according to this protocol. The Petri dishes are incubated at 37° C. for 24 hours.
(§5) The appearance of a coloration at the point of deposit of the stool and in the Candida colonies is read according to a semi-quantitative scale: • 0=absence of coloration • 0.5=trace coloration • 1=weak coloration • 2=strong coloration.

Salmonella Typhi = experiment: Coloration of Salmonella Typhi colonies on detection medium; assay type: cell-based; parameters: key: 0=no coloration; 0.5=trace of coloration; 1=weak coloration; 2=strong coloration
Experimental: as §1
(§6) Melting is carried out at 100° C., and the medium is autoclaved at 121° C. for 15 minutes. The additives are then added to the medium: Magenta C8 (500 mg/l; B-7102, BIOSYNTH, Staad, Switzerland); X-glucoside (75 mg/l; B-7250, BIOSYNTH, Staad, Switzerland); cefsulodine (10 mg/l; C 4786, Sigma, St Quentin Fallavier, France) and various concentrations of the inhibitor O,O-diethyl p-nitrophenyl phosphate (Paraoxon® ethyl; CAS No. 311-45-5; 36186, Riedel-de Haën, St Quentin Fallavier, France; 0; 1; 5 or 10 mg/l).
(§7) The various detection media thus obtained are then poured into Petri dishes.
(§8) Seeding of Salmonella bacteria: 10 μl of stools are deposited onto a Petri dish, this stool suspension is mixed or not mixed with 10 μl of a suspension of Salmonella (0.5 McF) and isolated as 3 dials on a Petri dish. Various […] and various Salmonella strains originating from the applicant's collection are used according to this protocol. The Petri dishes are incubated at 37° C. for 24 hours. The appearance of a coloration at the point of deposit of the stool (“deposit” column) and at the Salmonella colony (“colony” column) is read according to a semi-quantitative scale: • 0=no coloration • 0.5=trace of coloration • 1=weak coloration • 2=strong coloration The results obtained are given in Table 1.
as §6, with “O,O-dimethyl” for “O,O-diethyl”, “methyl;” for “ethyl;”, “950-35-6;” for “311-45-5; 36186,”, “5, 10, 25” for “0; 1; 5 or 10”
(§9) Seeding of Salmonella bacteria: The Petri dishes are inoculated, incubated and read as in Example 1.
(§10) Preparation of the detection medium: 250 ml of the medium of Example 1, in which the O,O-diethyl p-nitrophenyl phosphate is replaced with various concentrations of O,O-di-(2-chloroethyl)-O-(3-chloro-4-methylcoumarin-7-yl)phosphate (Haloxon®; CAS No. 321-55-1; R276995, Sigma, St Quentin Fallavier, France; 0; 1; 10; 100 or 1000 mg/l), are prepared according to the method of Example 1.
as §3

free esterases in stools [1] = experiment: Coloration at the point of deposit of the stool on Candida detection medium; assay type: biochemical; parameters: key: 0=absence of coloration; 0.5=trace coloration; 1=weak coloration; 2=strong coloration; settings: Table 4, no strain
Experimental: as §1, §2, §3, §4, §5

Candida albicans [2] = experiment: Coloration of Candida albicans colonies on detection medium; assay type: cell-based; parameters: key: 0=absence of coloration; 0.5=trace coloration; 1=weak coloration; 2=strong coloration; settings: stool B
Experimental: as §1, §2, §3, §4, §5

free esterases in stools [3] = experiment: Coloration at the point of deposit of the stool on Candida detection medium; assay type: biochemical; parameters: key: 0=no coloration; 0.5=trace of coloration; 1=weak coloration; 2=strong coloration; settings: Table 4
Experimental: as §1, §2, §3, §4, §5

[4] = Colonies column read for stool without added strain, Candida detection medium; parameters: key: 0=absence of coloration; 0.5=trace coloration; 1=weak coloration; 2=strong coloration; settings: Table 4, no strain
Experimental: as §1, §2, §3, §4, §5

Candida albicans [5] = experiment: Coloration of Candida albicans colonies on detection medium; assay type: cell-based; parameters: key: 0=no coloration; 0.5=trace of coloration; 1=weak coloration; 2=strong coloration; settings: stool A
Experimental: as §1, §2, §3, §4, §5

[6] = Colonies column read for stool without added strain, Salmonella detection medium; parameters: key: 0=no coloration; 0.5=trace of coloration; 1=weak coloration; 2=strong coloration; settings: no strain
Experimental: as §1, §6, §7, §8
as §6, with “O,O-dimethyl” for “O,O-diethyl”, “methyl;” for “ethyl;”, “950-35-6;” for “311-45-5; 36186,”, “5, 10, 25” for “0; 1; 5 or 10”
as §9, §10, §3

CCOP(=O)(OCC)Oc1ccc([N+](=O)[O-])cc1 [O,O-diethyl p-nitrophenyl phosphate] showed a Colonies coloration (Candida krusei; Table 4, 5 mg/l, stool A) of 0.5, a Colonies coloration (Candida krusei; Table 4, 5 mg/l, stool B) of 0.5 and a Colonies coloration (Salmonella Typhi; Table 1, 1 mg/l, stool A) of 1. It also gave a Colonies coloration (Salmonella Typhi; Table 1, 1 mg/l, stool B) of 1, a Colonies coloration (Salmonella Typhi; Table 1, 5 mg/l, stool A) of 1 and a Colonies coloration (Salmonella Typhi; Table 1, 5 mg/l, stool B) of 1. It also gave a Colonies coloration (Salmonella Typhi; Table 1, 10 mg/l, stool A) of 1, a Colonies coloration (Salmonella Typhi; Table 1, 10 mg/l, stool B) of 1 and a Deposit coloration (free esterases in stools [1]; 5 mg/l, stool A) of 0. It also gave a Deposit coloration (free esterases in stools [1]; 5 mg/l, stool B) of 0, a Colonies coloration (Candida albicans [2]; Table 4, 5 mg/l) of 0.5 and a Deposit coloration (free esterases in stools [3]; 5 mg/l, stool A, Candida albicans) of 1. The Deposit coloration (free esterases in stools [3]; 5 mg/l, stool A, Candida dubliniensis) was 1, the Deposit coloration (free esterases in stools [3]; 5 mg/l, stool A, Candida krusei) was 1 and the Deposit coloration (free esterases in stools [3]; 5 mg/l, stool B, Candida albicans) was 1. For the same compound, the Deposit coloration (free esterases in stools [3]; 5 mg/l, stool B, Candida dubliniensis) was 1, the Deposit coloration (free esterases in stools [3]; 5 mg/l, stool B, Candida krusei) was 1 and the Colonies coloration ([4]; 5 mg/l, stool A) was 0. It also gave a Colonies coloration ([4]; 5 mg/l, stool B) of 0, a Colonies coloration (Candida albicans [5]; Table 4, 5 mg/l) of 1 and a Colonies coloration ([6]; Table 1, 1 mg/l, stool A) of 0. It also gave a Colonies coloration ([6]; Table 1, 1 mg/l, stool B) of 0, a Colonies coloration ([6]; Table 1, 5 mg/l, stool A) of 0 and a Colonies coloration ([6]; Table 1, 5 mg/l, stool B) of 0. It also gave a Colonies coloration ([6]; Table 1, 10 mg/l, stool A) of 0 and a Colonies coloration ([6]; Table 1, 10 mg/l, stool B) of 0.

In the case of Cc1c(Cl)c(=O)oc2cc(OP(=O)(OCCCl)OCCCl)ccc12 [O,O-di-(2-chloroethyl)-O-(3-chloro-4-methylcoumarin-7-yl) phosphate], the Colonies coloration (Candida krusei; Table 4, 75 mg/l, stool A) is reported as 0.5, the Colonies coloration (Candida krusei; Table 4, 75 mg/l, stool B) is reported as 0.5 and the Colonies coloration (Salmonella Typhi; Table 3, 1 mg/l, stool A) is reported as 1. The Colonies coloration (Salmonella Typhi; Table 3, 1 mg/l, stool B) was 1, the Colonies coloration (Salmonella Typhi; Table 3, 10 mg/l, stool A) was 1 and the Colonies coloration (Salmonella Typhi; Table 3, 10 mg/l, stool B) was 1. For the same compound, the Colonies coloration (Salmonella Typhi; Table 3, 100 mg/l, stool A) was 1, the Colonies coloration (Salmonella Typhi; Table 3, 100 mg/l, stool B) was 1 and the Colonies coloration (Salmonella Typhi; Table 3, 1000 mg/l, stool A) was 1. It also gave a Colonies coloration (Salmonella Typhi; Table 3, 1000 mg/l, stool B) of 1, a Deposit coloration (free esterases in stools [1]; 75 mg/l, stool A) of 0 and a Deposit coloration (free esterases in stools [1]; 75 mg/l, stool B) of 0. For the same compound, the Colonies coloration (Candida albicans [2]; Table 4, 75 mg/l) was 0.5, the Deposit coloration (free esterases in stools [3]; 75 mg/l, stool A, Candida albicans) was 1 and the Deposit coloration (free esterases in stools [3]; 75 mg/l, stool A, Candida dubliniensis) was 1. It also gave a Deposit coloration (free esterases in stools [3]; 75 mg/l, stool A, Candida krusei) of 1, a Deposit coloration (free esterases in stools [3]; 75 mg/l, stool B, Candida albicans) of 1 and a Deposit coloration (free esterases in stools [3]; 75 mg/l, stool B, Candida dubliniensis) of 1. It also gave a Deposit coloration (free esterases in stools [3]; 75 mg/l, stool B, Candida krusei) of 1, a Colonies coloration ([4]; 75 mg/l, stool A) of 0 and a Colonies coloration ([4]; 75 mg/l, stool B) of 0. For the same compound, the Colonies coloration (Candida albicans [5]; Table 4, 75 mg/l) was 1, the Colonies coloration ([6]; Table 3, 1 mg/l, stool A) was 0 and the Colonies coloration ([6]; Table 3, 1 mg/l, stool B) was 0. It also gave a Colonies coloration ([6]; Table 3, 10 mg/l, stool A) of 0, a Colonies coloration ([6]; Table 3, 10 mg/l, stool B) of 0 and a Colonies coloration ([6]; Table 3, 100 mg/l, stool A) of 0. For the same compound, the Colonies coloration ([6]; Table 3, 100 mg/l, stool B) was 0, the Colonies coloration ([6]; Table 3, 1000 mg/l, stool A) was 0 and the Colonies coloration ([6]; Table 3, 1000 mg/l, stool B) was 0.

In the case of COP(=O)(OC)Oc1ccc([N+](=O)[O-])cc1 [O,O-dimethyl p-nitrophenyl phosphate], the Colonies coloration (Candida krusei; Table 4, 25 mg/l, stool A) is reported as 0.5, the Colonies coloration (Candida krusei; Table 4, 25 mg/l, stool B) is reported as 0.5 and the Colonies coloration (Salmonella Typhi; Table 2, 5 mg/l, stool C) is reported as 0.5. For the same compound, the Colonies coloration (Salmonella Typhi; Table 2, 5 mg/l, stool D) was 0.5, the Colonies coloration (Salmonella Typhi; Table 2, 10 mg/l, stool C) was 1 and the Colonies coloration (Salmonella Typhi; Table 2, 10 mg/l, stool D) was 0.5. The Colonies coloration (Salmonella Typhi; Table 2, 25 mg/l, stool C) was 0.5, the Colonies coloration (Salmonella Typhi; Table 2, 25 mg/l, stool D) was 0.5 and the Deposit coloration (free esterases in stools [1]; 25 mg/l, stool A) was 0. It also gave a Deposit coloration (free esterases in stools [1]; 25 mg/l, stool B) of 0, a Colonies coloration (Candida albicans [2]; Table 4, 25 mg/l) of 0.5 and a Deposit coloration (free esterases in stools [3]; 25 mg/l, stool A, Candida albicans) of 1. The Deposit coloration (free esterases in stools [3]; 25 mg/l, stool A, Candida dubliniensis) was 1, the Deposit coloration (free esterases in stools [3]; 25 mg/l, stool A, Candida krusei) was 1 and the Deposit coloration (free esterases in stools [3]; 25 mg/l, stool B, Candida albicans) was 1. It also gave a Deposit coloration (free esterases in stools [3]; 25 mg/l, stool B, Candida dubliniensis) of 1, a Deposit coloration (free esterases in stools [3]; 25 mg/l, stool B, Candida krusei) of 1 and a Colonies coloration ([4]; 25 mg/l, stool A) of 0. The Colonies coloration ([4]; 25 mg/l, stool B) was 0, the Colonies coloration (Candida albicans [5]; Table 4, 25 mg/l) was 1 and the Colonies coloration ([6]; Table 2, 5 mg/l, stool C) was 0. The Colonies coloration ([6]; Table 2, 5 mg/l, stool D) was 0, the Colonies coloration ([6]; Table 2, 10 mg/l, stool C) was 0 and the Colonies coloration ([6]; Table 2, 10 mg/l, stool D) was 0. The Colonies coloration ([6]; Table 2, 25 mg/l, stool C) was 0 and the Colonies coloration ([6]; Table 2, 25 mg/l, stool D) was 0.
